Results on three molecules are retold here after patent US20180273970A1, “PLASMID, TRANSFORMED PLANT CELL AND TRANSGENIC PLANT COMPRISING THE SAME, AND METHODS FOR PREPARING A TRANSGENIC PLANT AND FOR INCREASING YIELD OF A PLANT UNDER ABIOTIC STRESSES” (Academia Sinica, priority 2014, published 2018).

Test [1] deals with rice seedlings. The experiment in a line: Seed germination and shoot elongation in air or under water (hypoxia). It counts as in vivo. The note with it: under water with 90 mM sucrose. The protocol:
FIG. 6. SKINs suppress sugar production necessary for seedling growth under hypoxia. Rice seeds were germinated in air or in water with or without 90 mM sucrose at 28° C. under a 14-h light/10-h dark cycle for various lengths of time. Shoot length of seedlings were measured daily. Error bars indicate the S.E. of shoot length (n=10). Panel 1: transgenic line SKIN1-04 overexpressing SKIN1; panel 2: transgenic line SKIN2-04 overexpressing SKIN2. For data using more SKIN-Ox and SKIN-Ri lines, see also FIG. 16 online.
FIG. 16. SKINs suppress sugar production necessary for underwater seedling growth. Rice seeds of SKIN-Ox and SKIN-Ri lines were germinated in air or in water with or without 90 mM sucrose for various lengths of time. Shoot length of seedlings were measured daily. Error bars indicate the S.E. of shoot length (n=10). Panel 1: in air; panel 2: in water; panel 3: in water with sucrose.
The experiment was performed as described (Lee et al., 2009). For germination in air, seeds were placed on 3M filter papers wetted with water in a 50-ml centrifuge tube which contains half-strength MS agar medium. For germination under water, seeds were placed in a 50-ml centrifuge tube, autoclaved water was carefully poured into the tube to avoid any air bubbles, and tubes were sealed with lids.

In test [2] the test system is rice seedlings. The experiment in a line: Seedling shoot and root growth under light/dark cycle or continuous darkness, with or without sucrose. The test is classed as in vivo. The note with it: 3% (88 mM) sucrose, 6 days. The protocol: FIG. 5. SKINs repress seedling growth by inhibiting nutrient mobilization in the endosperm. Transgenic lines SKIN1-Ox(O3), SKIN1-Ri(R3), SKIN2-Ox(02) and SKIN2-Ri(R1) were used in the following experiments. (A) Seeds were germinated and grown in water at 28° C. under a 14-h light/10-h dark cycle or continuous darkness without (panel 1) or with (panel 2) 3% (90 mM) sucrose for 6 days. (B) Lengths of shoots and roots of seedlings in (A) were quantified. Panels 1 and 2, without and with sucrose, respectively. (C) Seedlings were grown under a 14-h light/10-h dark cycle or continuous darkness for 3 days. Total RNA was extracted and subjected to quantitative (real-time) RT-PCR analysis using primers specific for αAmy3 (panel 1) and EP3A (panel 2). Error bars represent SE (n=12) at significance levels: * p<0.1, **p<0.05 in (B) and (C).
Rice (Oryza sativa cv Tainung 67) and barley (Hordeum vulgare cv Himalaya) were used in this study. Embryo calli were induced in the Murashige & Skoog (MS) medium containing 3% sucrose and […] 2,4-D (2,4-Dichlorophenoxyacetic acid) for 5 days. For hydroponic culture of rice seedlings, seeds were sterilized with 1.5% NaOCl plus Tween 20 for 1 h, washed extensively with distilled water, and germinated in a petri dish with wetted filter papers at 28° C. under a 14-h light/10-h dark condition unless otherwise indicated. […]

Test [3] has as its target T1, GAD-SnRK1A (full-length SnRK1A 1-505 fused to the Gal4 activation domain) (rice, UniProt Q852Q2 1-505).
T1 construct: range 1-505
T1 sequence (looked up): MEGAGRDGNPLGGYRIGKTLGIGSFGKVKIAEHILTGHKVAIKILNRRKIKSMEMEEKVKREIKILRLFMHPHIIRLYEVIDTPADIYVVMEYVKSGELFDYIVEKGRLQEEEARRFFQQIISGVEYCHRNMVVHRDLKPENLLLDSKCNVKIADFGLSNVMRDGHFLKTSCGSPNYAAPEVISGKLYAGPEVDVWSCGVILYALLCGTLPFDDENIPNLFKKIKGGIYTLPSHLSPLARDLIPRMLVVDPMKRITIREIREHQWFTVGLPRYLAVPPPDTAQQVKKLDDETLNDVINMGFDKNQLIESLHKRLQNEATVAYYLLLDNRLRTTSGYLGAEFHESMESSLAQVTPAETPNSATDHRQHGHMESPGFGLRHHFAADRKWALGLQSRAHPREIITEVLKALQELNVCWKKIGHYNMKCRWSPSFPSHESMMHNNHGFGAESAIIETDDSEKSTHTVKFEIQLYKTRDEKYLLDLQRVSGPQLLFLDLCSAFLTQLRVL
Briefly: rice embryo GAL4-UAS two-hybrid, luciferase reporter. The protocol:
FIG. 2. The N-terminus of SKIN interacts with the kinase domain of SnRK1A. For the GAL4-UAS two-hybrid assay, rice embryos were co-transfected with effector and reporter plasmids, incubated in −S medium for 24 h, and assayed for luciferase activity. The luciferase activity in rice embryos bombarded with effectors Ubi:GAD, Ubi:GBD and reporter 5XUAS-35S mp:Luc was set to 1×, and other values were calculated relative to this value. Error bars indicate the SE for three replicate experiments. Significance levels: * p<0.1, ** p<0.05. The Y axis indicates the relative luciferase activity with different constructs. (A) Plasmid constructs. (B) Rice embryos were co-transfected with effectors Ubi:GAD-SnRK1A and Ubi:GBD-SKIN (wild type or truncated) and reporter 5XUAS-35S mp:Luc. (C) Rice embryos were co-transfected with effectors Ubi:GAD-SnRK1A [wild type, kinase domain (KD) or regulatory (RD)], Ubi:GBD-SKIN and reporter 5XUAS-35S mp:Luc. (D) Rice embryos were co-transfected with effectors Ubi:GAD-SnRK1A and Ubi:GBD-SKIN and reporter 5XUAS-35S mp:Luc, and incubated in −S medium containing 1 μM ABA.
Rice embryos were prepared for particle bombardment as described (Chen et al., 2006). The rice embryos were bombarded with reporter, effectors and internal control at a ratio of 4:2:1 for single effector or 4:2:2:1 for two effectors. […]
(In general: In a reporter assay the amount or activity of a reporter protein is the signal.)

In test [4] the target is T2, SnRK1A (full length, expressed from Ubi:SnRK1A) (rice, UniProt Q852Q2 1-505).
T2 construct: range 1-505; also called pUbi-SnRK1A-Nos
T2 sequence (looked up): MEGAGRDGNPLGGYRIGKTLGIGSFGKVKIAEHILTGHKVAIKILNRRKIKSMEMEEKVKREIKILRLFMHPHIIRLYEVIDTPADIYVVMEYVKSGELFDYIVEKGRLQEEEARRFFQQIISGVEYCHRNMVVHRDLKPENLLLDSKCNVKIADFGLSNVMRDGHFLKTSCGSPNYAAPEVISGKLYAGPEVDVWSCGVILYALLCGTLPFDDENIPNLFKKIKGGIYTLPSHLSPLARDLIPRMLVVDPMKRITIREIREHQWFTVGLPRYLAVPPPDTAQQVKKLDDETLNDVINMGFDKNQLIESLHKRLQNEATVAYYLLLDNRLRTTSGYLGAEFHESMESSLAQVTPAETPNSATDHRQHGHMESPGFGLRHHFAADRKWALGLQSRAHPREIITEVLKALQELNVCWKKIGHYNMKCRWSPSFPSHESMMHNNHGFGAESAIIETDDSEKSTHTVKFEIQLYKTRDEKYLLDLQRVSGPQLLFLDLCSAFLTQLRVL
Briefly: co-expression and confocal localization of GFP fusions in barley aleurone cells. The protocol: Detection of cellular localization of SKIN-GFP, SnRK1A-GFP and MYBS1-GFP fusion proteins were performed as described (Hong et al., 2012). Embryoless barley and rice seeds were sterilized with 1% NaOCl for 30 mins, and incubated in a buffer containing 20 mM CaCl₂ and 20 mM sodium succinate, pH 5.0, for 4 days. Aleurone layers were isolated by scratching away starch in the endosperm with a razor blade. Four aleurone layers were arranged in a 10-cm dish for bombardment. Aleurone layers expressing GFP were examined with a Ziess confocal microscope (LSM510META) using a 488-nm laser line for excitation and a 515- to 560-nm long pass filter for emission.
The subcellular localization of SKIN and SnRK1A was determined. As SKINs interact with the KD of SnRK1A, the full-length, KD and RD of SnRK1A were fused to the green fluorescence protein (GFP) and expressed under the control of the Ubi promoter in a barley aleurone cell transient expression system (Hong et al., 2012). As shown in FIG. 7 and FIG. 17, SnRK1A-GFP and SnRK1A-KD-GFP were largely localized in the cytoplasm and minor in the nucleus and SnRK1A-RD-GFP mainly in the nucleus, whereas SKIN1-GFP was predominantly localized in the nucleus and minor in the cytoplasm. Co-expression of SnRK1A-GFP with SKIN1 excluded all SnRK1A-GFP from the nucleus. […]

On to `OC[C@H]1O[C@@](CO)(O[C@H]2O[C@H](CO)[C@@H](O)[C@H](O)[C@H]2O)[C@@H](O)[C@@H]1O` [sucrose], for which the “Effect of sucrose on retarded shoot elongation of SKIN-Ox lines” value with rice seedlings [1] was “significantly recovered”. Further, in the test with rice seedlings [2], the “Effect of sucrose on growth of SKIN-Ox lines” value is listed as “recover the growth”.

B1: GBD-SKIN2 86-261 (other)
chain: MKLLSSIEQACDICRLKKLKCSKEKPKCAKCLKNNWECRYSPKTKRSPLTRAHLTEVESRLERLEQLFLLIFPREDLDMILKMDSLQDIKALLTGLFVQDNVNKDAVTDRLASVETDMPLTLRQHRISATSSSEESSNKGQRQLTVSSKAKEVAVEVEGGGLGFHGLGTLESLEDALPIKRGLSNFYAGKSKSFTSLAEAAAKAAAKEIAKPENPFNKRRRVLAAWSRRRASCSSLATTYLPPLLAPDHAVVEEEDEEDDSDAEQCSGSGGGNRRREPTFPPPRLSLHAQKSSLTPRSSNPASSFRSPRSFSLSDLQNAGSYN
With B1, the binding result in test [3] was “no binding”.

B2: SKIN1-GFP (other)
chain: MSTAVADVPPAAAYGFPGSAKRGKPEEVVVLMGKRRNEGFFIEEEEEEEEVLTESSSIGAPSPASSSIGENSGEEEGGDDEEEVESKLKAEDEQVGLGCLDALEESLPIKRGLSNFYAGKSKSFTSLAEATASPAAAANELAKPENPFNKRRRILATWSRRASCSSLATATYLPPLLAPDHAVAEGDEGEEEDDDSDDDERQHRGKNGGRRESAAPPLPLPPPRLTLHTQMGGMVRRNGTFRSPRSLSLSDLQNSGGSC
notes: also called Ubi:SKIN1-GFP; SKIN-GFP; not shown: green fluorescence protein (GFP)
With B2, in test [4], the binding result is given as “binds”.
